Measurements taken from patent US5202315A, “Cephalosporin compounds” (Lucky, Ltd., priority 1989, dated 1993).
Converted amounts (≈) assume the structure as drawn. Like-named read-outs stand apart in the source and are kept apart here.

Legend:
[1] = system: Staphylococcus aureus methicillin susceptible; assay: Antibacterial activity against clinically isolated strains, MIC; assay type: cell-based; settings: methicillin susceptible, 42 clinical isolates, broth microdilution test; for MIC90: read-out: MIC 90%
Pseudomonas aeruginosa = assay: as above; assay type: cell-based
[2] = system: Streptococcus faecalis ATCC 29212; assay: Antibacterial activity, MIC; assay type: cell-based; settings: Enterococcus faecalis, ATCC29212; ATCC 29212; agar two-fold dilution, 37° C., 20 hours; read-out: MIC
In short: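 Incubation at 37 °C for 20 h followed inoculation of 2 μl standard strain (10^7 CFU/ml) onto agar carrying the compound. Compound was incorporated into Mueller-Hinton agar as two-fold serial dilutions.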

[3] = In-vivo absorbency (plasma concentrations & pharmacokinetic parameters); design: species or system SD rat (male); settings: plasma, SD male rat, iv 20 mg/kg, read-out: Plasma Conc.
Klebsiella pneumoniae = assay: Antibacterial activity against clinically isolated strains, MIC; assay type: cell-based; settings: 10 clinical isolates, broth microdilution test; for MIC90: read-out: MIC 90%
Pseudomonas = assay: Antibacterial activity; assay type: cell-based; settings: statement in words
[4] = 54 clinical isolates, broth microdilution test
[5] = 54 clinical isolates, broth microdilution test, read-out: MIC 90%

SMILES	MIC50 [1]	MIC90 [1]	MIC90 (Pseudomonas aeruginosa)	MIC50 (Pseudomonas aeruginosa; [4])	MIC [2]	concentration at 1 min [3]	concentration at 2.5 min [3]	concentration at 5 min [3]	concentration at 10 min [3]	concentration at 20 min [3]	concentration at 40 min [3]	MIC50 (Klebsiella pneumoniae)	MIC90 (Klebsiella pneumoniae)	MIC90 (Pseudomonas aeruginosa; [5])	antibacterial activities, especially against Pseudomonas (Pseudomonas)	concentration at 2.5 h ([3]; 150 min)
C[n+]1c(N)cc(N)nc1SCC1=C(C(=O)[O-])N2C(=O)C(NC(=O)/C(=N\OCC(=O)O)c3csc(N)n3)C2SC1 (centres unmarked) [Compound I-7]	4 µg/mL (≈ 6.72 µM)	4 µg/mL (≈ 6.72 µM)	16 µg/mL (≈ 26.9 µM)	4 µg/mL (≈ 6.72 µM)	> 128 µg/mL	128000 ng/mL	83000 ng/mL	59000 ng/mL	43000 ng/mL	29000 ng/mL	15000 ng/mL	0.016 µg/mL (≈ 0.0269 µM)	0.031 µg/mL (≈ 0.052 µM)			
CC[n+]1c(N)cc(N)nc1SCC1=C(C(=O)[O-])N2C(=O)C(NC(=O)/C(=N\OC(C)(C)C(=O)O)c3csc(N)n3)C2SC1 (centres unmarked) [Compound I-2]	2 µg/mL (≈ 3.14 µM)	2 µg/mL (≈ 3.14 µM)		2 µg/mL (≈ 3.14 µM)		55000 ng/mL	33000 ng/mL	22000 ng/mL	14000 ng/mL	7300 ng/mL	4500 ng/mL	0.13 µg/mL (≈ 0.204 µM)	0.13 µg/mL (≈ 0.204 µM)	4 µg/mL (≈ 6.27 µM)		
CCO/N=C(\C(=O)NC1C(=O)N2C(C(=O)[O-])=C(CSc3nc(N)cc(N)[n+]3N)CSC12)c1csc(N)n1 (centres unmarked) [Compound I-16]	0.25 µg/mL (≈ 0.441 µM)	0.25 µg/mL (≈ 0.441 µM)	16 µg/mL (≈ 28.2 µM)	4 µg/mL (≈ 7.06 µM)	32 µg/mL (≈ 56.5 µM)	149000 ng/mL	106000 ng/mL	79000 ng/mL	52000 ng/mL	32000 ng/mL	13000 ng/mL	0.13 µg/mL (≈ 0.229 µM)	0.13 µg/mL (≈ 0.229 µM)			
CCC[n+]1c(N)cc(N)nc1SCC1=C(C(=O)[O-])N2C(=O)C(NC(=O)/C(=N\OC(C)C(=O)O)c3csc(N)n3)C2SC1 (centres unmarked) [Compound I-45]	2 µg/mL (≈ 3.14 µM)	2 µg/mL (≈ 3.14 µM)	16 µg/mL (≈ 25.1 µM)	4 µg/mL (≈ 6.27 µM)	> 128 µg/mL	147000 ng/mL	84000 ng/mL	67000 ng/mL	52000 ng/mL	29000 ng/mL	16000 ng/mL	0.13 µg/mL (≈ 0.204 µM)	0.13 µg/mL (≈ 0.204 µM)			
C[n+]1c(N)cc(N)nc1SCC1=C(C(=O)[O-])N2C(=O)C(NC(=O)/C(=N\OC(C)(C)C(=O)O)c3csc(N)n3)[C@H]2SC1 (some centres unmarked) [Compound I-1, 7-[(Z)-2-(2-aminothiazol-4-yl)-2-(2-carboxyprop-2-oxyimino)acetamido]-3-(4,6-diamino-1-methylpyrimidinium-2-yl) thiomethyl-3-cephem-4-carboxylate]	2 µg/mL (≈ 3.21 µM)	2 µg/mL (≈ 3.21 µM)		1 µg/mL (≈ 1.6 µM)		152000 ng/mL	101000 ng/mL	65000 ng/mL	45000 ng/mL	29000 ng/mL	14000 ng/mL	0.063 µg/mL (≈ 0.101 µM)	0.13 µg/mL (≈ 0.208 µM)	4 µg/mL (≈ 6.41 µM)	excellent	
CC[n+]1c(N)cc(N)nc1SCC1=C(C(=O)[O-])N2C(=O)C(NC(=O)/C(=N\OC(C)C(=O)O)c3csc(N)n3)C2SC1 (centres unmarked) [Compound I-5]	4 µg/mL (≈ 6.41 µM)	4 µg/mL (≈ 6.41 µM)		4 µg/mL (≈ 6.41 µM)		134000 ng/mL	91000 ng/mL	72000 ng/mL	49000 ng/mL	29000 ng/mL	13000 ng/mL	0.063 µg/mL (≈ 0.101 µM)	0.25 µg/mL (≈ 0.401 µM)	8 µg/mL (≈ 12.8 µM)		
Cc1c(N)nc(SCC2=C(C(=O)[O-])N3C(=O)C(NC(=O)/C(=N\OC(C)(C)C(=O)O)c4csc(N)n4)C3SC2)[n+](C)c1N (centres unmarked) [Compound I-30]	2 µg/mL (≈ 3.14 µM)	4 µg/mL (≈ 6.27 µM)		2 µg/mL (≈ 3.14 µM)		148000 ng/mL	100000 ng/mL	80000 ng/mL	54000 ng/mL	29000 ng/mL	17000 ng/mL	0.13 µg/mL (≈ 0.204 µM)	0.25 µg/mL (≈ 0.392 µM)	4 µg/mL (≈ 6.27 µM)		1300 ng/mL
CC(O/N=C(\C(=O)NC1C(=O)N2C(C(=O)[O-])=C(CSc3nc(N)cc(N)[n+]3C)CSC12)c1csc(N)n1)C(=O)O (centres unmarked) [Compound I-4]	4 µg/mL (≈ 6.56 µM)	4 µg/mL (≈ 6.56 µM)	16 µg/mL (≈ 26.2 µM)	4 µg/mL (≈ 6.56 µM)		64000 ng/mL	42000 ng/mL	32000 ng/mL	14000 ng/mL	7300 ng/mL	4500 ng/mL	0.031 µg/mL (≈ 0.0508 µM)	0.13 µg/mL (≈ 0.213 µM)			
